Laboratory results published in US10766902B2, “Wee-1 inhibiting pyrazolopyrimidinone compounds” (ALMAC DISCOVERY LIMITED, priority 2016, dated 2020).
pIC50: −log10 of the molar value.

Molecular target: Wee-1 kinase (Homo sapiens (Human), UniProt P30291)
Assay: Measurement of Wee-1 kinase activity (ADP-Glo luminescence)
Format: biochemical
Conditions: read-out: Wee1 IC50
Experimental: Method 1: Measurement of Wee-1 Kinase Activity
In the measurement of Wee-1 activity, a commercial peptide Poly(Lys Tyr(4:1)) hydrobromide was purchased from Sigma Aldrich and used as the substrate. Activated Wee-1 kinase was purchased from Invitrogen (PV3817) and an ADP-Glo luminescent kit was purchased from Promega.
All reactions took place in […] volumes in reaction buffer containing 40 mM Tris-HCl and 20 mM magnesium chloride, supplemented with 0.1 mg/mL bovine serum albumin and 2 mM DTT. Compounds were serially diluted in buffer and 5 μL of each concentration pipetted into a white 384 well plate (Sigma Aldrich M6186). A 5 μL aliquot of the Wee-1 enzyme was added to each well and the plate centrifuged for 1 min to ensure mixing of the enzyme and inhibitor.
The plate was incubated at room temperature for 30 minutes before the addition of 2.0 μg/mL of substrate and 30 μM ATP in a 5 μL aliquot. The plate was centrifuged for one minute and incubated for 1 h at RT.
15 μL of ADP-Glo stop reagent was added to each well to quench the reaction and deplete unconverted ATP. The plate was incubated for a further 40 min in the dark at RT.
30 μL of ADP-Glo kinase detection reagent was added to each well, converting ADP to ATP, catalysing the generation of luciferin by luciferase. The plate was shaken for 1 min, and incubated in the dark for an additional hour.
Luminescence from each well was detected using the Biotek Synergy4 HD plate reader and the percentage inhibition of kinase activity calculated for each inhibitor tested. Positive (kinase only) and negative (no kinase) controls were added to each plate to ensure specific interaction of kinase and inhibitor. The IC50 concentration for each inhibitor was calculated by plotting the percentage kinase inhibition against concentration of inhibitor and the curve generated by non-linear regression fitting.

Chain of Wee-1 kinase (P30291 whole entry): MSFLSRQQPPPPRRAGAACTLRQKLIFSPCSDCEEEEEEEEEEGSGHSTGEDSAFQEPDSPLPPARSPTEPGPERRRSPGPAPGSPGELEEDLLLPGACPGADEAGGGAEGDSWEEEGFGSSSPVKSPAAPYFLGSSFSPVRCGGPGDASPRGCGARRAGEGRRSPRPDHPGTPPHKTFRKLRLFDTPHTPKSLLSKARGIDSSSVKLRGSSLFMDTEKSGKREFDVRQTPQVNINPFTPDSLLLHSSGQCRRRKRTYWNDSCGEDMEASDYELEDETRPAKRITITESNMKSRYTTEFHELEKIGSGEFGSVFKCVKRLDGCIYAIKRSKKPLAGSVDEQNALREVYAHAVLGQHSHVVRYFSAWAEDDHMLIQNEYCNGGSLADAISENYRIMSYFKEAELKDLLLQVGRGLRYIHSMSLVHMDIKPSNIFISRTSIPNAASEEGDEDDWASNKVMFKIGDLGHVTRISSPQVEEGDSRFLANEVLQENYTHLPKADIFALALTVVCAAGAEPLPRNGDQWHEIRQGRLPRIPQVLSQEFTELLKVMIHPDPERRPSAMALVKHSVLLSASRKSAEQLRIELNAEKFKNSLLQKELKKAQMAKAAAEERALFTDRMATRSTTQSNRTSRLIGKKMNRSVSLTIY

Row | pIC50 | SMILES
1 | 8.77 | CCCn1c(=O)c2cnc(Nc3ccc(N4CCOCC4)nc3)nc2n1-c1cccc(N=S(C)(C)=O)n1 [Example 39, 1-(6-{[Dimethyl(oxo)-λ^6-sulfanylidene]amino}pyridin-2-yl)-6-{[6-(morpholin-4-yl)pyridin-3-yl]amino}-2-propyl-1H,2H,3H-pyrazolo[3,4-d]pyrimidin-3-one]
2 | 7.18 | CC(C)n1c(=O)c2cnc(Nc3cccc(C(F)(F)F)c3)nc2n1-c1cccc(N=S(C)(C)=O)n1 [Example 73, 1-(6-{[Dimethyl(oxo)-λ^6-sulfanylidene]amino}pyridin-2-yl)-2-(propan-2-yl)-6-{[3-(trifluoromethyl)phenyl]amino}-1H,2H,3H-pyrazolo[3,4-d]pyrimidin-3-one]
3 | 8.31 | CC(C)n1c(=O)c2cnc(Nc3ccc(F)cc3)nc2n1-c1cccc(N=S(C)(C)=O)n1 [Example 41, 1-(6-{[Dimethyl(oxo)-λ^6-sulfanylidene]amino}pyridin-2-yl)-6-[(4-fluorophenyl)amino]-2-(propan-2-yl)-1H,2H,3H-pyrazolo[3,4-d]pyrimidin-3-one]
4 | 8.92 | CC(C)n1c(=O)c2cnc(Nc3ccc(N4CCNCC4)cc3)nc2n1-c1cccc(N=S2(=O)CCCC2)n1 [Example 59, 1-{6-[(1-Oxo-1λ^6-thiolan-1-ylidene)amino]pyridin-2-yl}-6-{[4-(piperazin-1-yl)phenyl]amino}-2-(propan-2-yl)-1H,2H,3H-pyrazolo[3,4-d]pyrimidin-3-one]
5 | 9.40 | C=CCn1c(=O)c2cnc(Nc3ccc(C4CCN(C5CCC5)CC4)c(C)c3)nc2n1-c1cccc(N=S(C)(C)=O)n1 [Example 88, 6-{[4-(1-Cyclobutylpiperidin-4-yl)-3-methylphenyl]amino}-1-(6-{[dimethyl(oxo)-λ^6-sulfanylidene]amino}pyridin-2-yl)-2-(prop-2-en-1-yl)-1H,2H,3H-pyrazolo[3,4-d]pyrimidin-3-one]
6 | 7.69 | C=CCn1c(=O)c2cnc(Nc3ccc(N4CCOCC4)cc3)nc2n1-c1cncc(N=S(C)(C)=O)c1 [Example 44, 1-(5-{[Dimethyl(oxo)-λ^6-sulfanylidene]amino}pyridin-3-yl)-6-{[4-(morpholin-4-yl)phenyl]amino}-2-(prop-2-en-1-yl)-1H,2H,3H-pyrazolo[3,4-d]pyrimidin-3-one]
7 | 9.05 | C=CCn1c(=O)c2cnc(Nc3ccc4c(c3)CN(C)CC43CC3)nc2n1-c1cccc(N=S(C)(C)=O)n1 [Example 15, 1-(6-{[Dimethyl(oxo)-λ^6-sulfanylidene]amino}pyridine-2-yl)-6-({2′-methyl-2′,3′-dihydro-1′H-spiro[cyclopropane-1,4′-isoquinoline]-7′-yl}amino)-2-(prop-2-en-1-yl)-1H,2H,3H-pyrazolo[3,4-d]pyrimidin-3-one]
8 | 8.80 | C=CCn1c(=O)c2cnc(Nc3ccc(C(C)(C)C)cc3)nc2n1-c1cccc(N=S(C)(C)=O)n1 [Example 64, 6-[(4-tert-Butylphenyl)amino]-1-(6-{[dimethyl(oxo)-λ^6-sulfanylidene]amino}pyridin-2-yl)-2-(prop-2-en-1-yl)-1H,2H,3H-pyrazolo[3,4-d]pyrimidin-3-one]
9 | 9.00 | C=CCn1c(=O)c2cnc(Nc3cc(F)cc(F)c3)nc2n1-c1cccc(N=S(C)(C)=O)n1 [Example 84, 6-[(3,5-Difluorophenyl)amino]-1-(6-{[dimethyl(oxo)-λ^6-sulfanylidene]amino}pyridin-2-yl)-2-(prop-2-en-1-yl)-1H,2H,3H-pyrazolo[3,4-d]pyrimidin-3-one]
10 | 9.05 | C=CCn1c(=O)c2cnc(Nc3ccc(N4CCN(C)CC4)cc3)nc2n1-c1cccc(N=S2(=O)CCCC2)n1 [Example 23, 2-Allyl-6-((4-(4-methylpiperazin-1-yl)phenyl)amino)-1-(6-((1-oxidotetrahydrothiophen-1-ylidene)amino)pyridin-2-yl)-1H-pyrazolo[3,4-d]pyrimidin-3(2H)-one]
11 | 8.96 | COc1ccc(Nc2ncc3c(=O)n(C(C)C)n(-c4cccc(N=S(C)(C)=O)n4)c3n2)cc1 [Example 42, 1-(6-{[Dimethyl(oxo)-λ^6-sulfanylidene]amino}pyridin-2-yl)-6-[(4-methoxyphenyl)amino]-2-(propan-2-yl)-1H,2H,3H-pyrazolo[3,4-d]pyrimidin-3-one]
12 | 9.52 | C=CCn1c(=O)c2cnc(Nc3ccc(N4CCN(C5CC5)CC4)cc3)nc2n1-c1cccc(N=S(C)(C)=O)n1 [Example 8, 6-{[4-(4-Cyclopropylpiperazin-1-yl)phenyl]amino}-1-(6-{[dimethyl(oxo)-λ^6-sulfanylidene]amino}pyridine-2-yl)-2-(prop-2-en-1-yl)-1H,2H,3H-pyrazolo[3,4-d]pyrimidin-3-one]
13 | 8.96 | C=CCn1c(=O)c2cnc(Nc3ccc(N4CCN(C)CC4)cc3)nc2n1-c1cccc(S(C)(=O)=NC#N)n1 (centres unmarked) [Example 1, 1-{6-[(Cyanoimino)(methyl)oxo-λ^6-sulfanyl]pyridin-2-yl}-6-{[4-(4-methylpiperazin-1-yl)phenyl]amino}-2-(prop-2-en-1-yl)-1H,2H,3H-pyrazolo[3,4-d]pyrimidin-3-one]
14 | 8.60 | C=CCn1c(=O)c2cnc(Nc3ccc(F)nc3)nc2n1-c1cccc(N=S(C)(C)=O)n1 [Example 70, 1-(6-{[Dimethyl(oxo)-λ^6-sulfanylidene]amino}pyridin-2-yl)-6-[(6-fluoropyridin-3-yl)amino]-2-(prop-2-en-1-yl)-1H,2H,3H-pyrazolo[3,4-d]pyrimidin-3-one]
15 | 8.59 | C=CCn1c(=O)c2cnc(Nc3ccc(N4CCOCC4)c(CNC)c3)nc2n1-c1cccc(N=S(C)(C)=O)c1 [Example 22, 1-(3-{[Dimethyl(oxo)-λ^6-sulfanylidene]amino}phenyl)-6-({3-[(methylamino)methyl]-4-(morpholin-4-yl)phenyl}amino)-2-(prop-2-en-1-yl)-1H,2H,3H-pyrazolo[3,4-d]pyrimidin-3-one]
16 | 9.22 | C=CCn1c(=O)c2cnc(Nc3cccc(N4CCOCC4)c3)nc2n1-c1cccc(N=S(C)(C)=O)n1 [Example 35, 1-(6-{[Dimethyl(oxo)-λ^6-sulfanylidene]amino}pyridin-2-yl)-6-{[3-(morpholin-4-yl)phenyl]amino}-2-(prop-2-en-1-yl)-1H,2H,3H-pyrazolo[3,4-d]pyrimidin-3-one]
17 | 7.66 | C=CCn1c(=O)c2cnc(Nc3ccc(N4CCOCC4)cc3)nc2n1-c1cccc(CN=S(C)(C)=O)n1 [Example 91, 1-[6-({[Dimethyl(oxo)-λ^6-sulfanylidene]amino}methyl)pyridin-2-yl]-6-{[4-(morpholin-4-yl)phenyl]amino}-2-(prop-2-en-1-yl)-1H,2H,3H-pyrazolo[3,4-d]pyrimidin-3-one]
18 | 9.05 | CC(C)n1c(=O)c2cnc(Nc3ccc(N4CCCNCC4)cc3)nc2n1-c1cccc(N=S(C)(C)=O)n1 [Example 46, 6-{[4-(1,4-Diazepan-1-yl)phenyl]amino}-1-(6-{[dimethyl(oxo)-λ^6-sulfanylidene]amino}pyridin-2-yl)-2-(propan-2-yl)-1H,2H,3H-pyrazolo[3,4-d]pyrimidin-3-one]
19 | 9.40 | C=CCn1c(=O)c2cnc(Nc3ccc(N4CCNC(C(F)(F)F)C4)cc3)nc2n1-c1cncc(N=S(C)(C)=O)n1 (racemic) [Example 93, rac-1-(6-{[Dimethyl(oxo)-λ^6-sulfanylidene]amino}pyrazin-2-yl)-2-(prop-2-en-1-yl)-6-({4-[3-(trifluoromethyl)piperazin-1-yl]phenyl}amino)-1H,2H,3H-pyrazolo[3,4-d]pyrimidin-3-one]
20 | 9.05 | CC(C)n1c(=O)c2cnc(Nc3ccc(N4CCNC(=O)C4)cc3)nc2n1-c1cccc(N=S(C)(C)=O)n1 [Example 48, 4-(4-{[1-(6-{[Dimethyl(oxo)-λ^6-sulfanylidene]amino}pyridin-2-yl)-3-oxo-2-(propan-2-yl)-1H,2H,3H-pyrazolo[3,4-d]pyrimidin-6-yl]amino}phenyl)piperazin-2-one]
21 | 8.92 | CCCn1c(=O)c2cnc(Nc3ccc(N4CCN(C)CC4)cc3)nc2n1-c1cccc(N=S(C)(C)=O)n1 [Example 11, 1-(6-{[Dimethyl(oxo)-λ^6-sulfanylidene]amino}pyridine-2-yl)-6-{[4-(4-methylpiperazin-1-yl)phenyl]amino}-2-propyl-1H,2H,3H-pyrazolo[3,4-d]pyrimidin-3-one]
22 | 9.52 | C=CCn1c(=O)c2cnc(Nc3ccc(N4CCO[C@H](COC)C4)cc3)nc2n1-c1cncc(N=S(C)(C)=O)n1 [Example 74, 1-(6-{[Dimethyl(oxo)-λ^6-sulfanylidene]amino}pyrazin-2-yl)-6-({4-[(2S)-2-(methoxymethyl)morpholin-4-yl]phenyl}amino)-2-(prop-2-en-1-yl)-1H,2H,3H-pyrazolo[3,4-d]pyrimidin-3-one]
23 | 9.70 | C=CCn1c(=O)c2cnc(Nc3ccc(N(C)CCOC)cc3)nc2n1-c1cccc(N=S(C)(C)=O)n1 [Example 89, 1-(6-{[Dimethyl(oxo)-λ^6-sulfanylidene]amino}pyridin-2-yl)-6-({4-[(2-methoxyethyl)(methyl)amino]phenyl}amino)-2-(prop-2-en-1-yl)-1H,2H,3H-pyrazolo[3,4-d]pyrimidin-3-one]
